From patent publication US20250051283A1, “THERAPEUTIC COMPOUNDS AND METHODS” (priority 2023, published 2025)
Where two headings read alike, the source gives them in different places.

Assays:
[1] = target: T1, EV-D68 2A^pro (WT-2A^pro, strain US/KY/14-18953, expressed in E. coli BL21(DE3) from pE-SUMOstar vector) (enterovirus D68, UniProt A0A097BW19); assay: FRET-based enzymatic assay of EV-D68 2A^pro inhibition (FRET substrate Dabcyl-KIRIVNT/GPGFGGE-Edans); format: biochemical
T1 construct: E. coli-codon-optimised gene, pE-SUMOstar, His-SUMO tag (removed with SUMO protease for nontagged form), E. coli BL21(DE3), Ni-NTA; 7JRE is the C107A mutant
Protocol: (§1) FIG. 4. […] Key structural variations compared to telaprevir were highlighted in red. Enzymatic inhibitory activity IC50 value was determined in the FRET-based assay. Antiviral EC50 value was determined in the CPE assay with EV-D68 US/MO/14-18947 in R.D. cells. Cytotoxicity CC50 value was determined using the neutral red uptake method in R.D. cells. The results are the mean±standard deviation of two independent experiments with three repeats in each experiment.
as §1, with “5.” for “4.”, “Jun8861” for “telaprevir”
Protein expression and purification. EV-D68 2A^pro gene from strain US/KY/14-18953 was ordered from Genscript (Piscataway, NJ) in pET28b(+) vector with E. coli codon optimization. 2A^pro gene was subcloned into pE-SUMOstar vector according to the manufacturers protocol. Plasmid encoding WT-2A^pro was transformed into BL21(DE3) competent E. coli cells, and a single colony was picked and used to inoculate 10 mL of L.B. grown supplemented with 50 μg/mL kanamycin at 37° C. at 250 rpm. The 10 mL inoculant was added to 1 L of L.B. with 50 μg/mL kanamycin and grown to an OD600 of 0.8-1.0, cooled to 18° C., then induced using 0.5 mM IPTG. Induced cultures were incubated at 18° C. for an additional 24 h, then harvested and resuspended in lysis buffer (25 mM Tris (pH 7.5); 750 mM NaCl, 2 mM DTT with 0.5 mg/mL lysozyme, 0.5 mM PMSF and 0.02 mg/mL DNase I) and lysed with alternating sonication and French press cycles. The cell debris were removed by centrifugation at 12,000×g for 45 min […]. The supernatant was incubated with Ni-NTA resin for over 2 h at 4° C. on a rotator. The Ni-NTA resin was thoroughly washed with 50 mM imidazole in wash buffer (50 mM Tris (pH 7.5), 150 mM NaCl, and 2 mM DTT); for the SUMO-tagged protein, the protein was directly eluted with 300 mM imidazole; for the nontagged 2A^pro Ni-NTA resin was treated with SUMO Protease 1 to remove the SUMO tag, then 2A^pro was washed off from the column with 10 mM imidazole in wash buffer. The imidazole was removed via dialysis or 10 K molecular weight cut-off centrifugal concentrator spin column. The purity of the protein was confirmed with SDS-PAGE. The protein concentration was determined by classic BCA assay using bovine serum albumin as a standard. EV-D68 3C^pro in pET28b(+) vector was expressed as previously described^10.
Peptide synthesis. The FRET substrate of EV-D68 2A^pro, Dabcyl-KIRIVNT/GPGFGGE-Edans, was synthesized using the Fmoc solid phase synthesis strategy.
Enzymatic assays. The reaction buffer contains 50 mM Tris (pH7.0), 150 mM NaCl, 10% Glycerol, and 2 mM DTT, and the reaction was carried out at 30° C. in Cytation 5 imaging reader (Fisher Scientific) with EX360/40-EM460/40 filter. Reactions were monitored every 90 sec. […] The reaction was initiated by adding 20 μM of FRET substrate, and the reaction was monitored for 2 hours and initial velocity was calculated for the first 30 minutes via linear regression.

[2] = tested on: EV-D68 US/MO/14-18947; assay: CPE assay (neutral red) with EV-D68 US/MO/14-18947 in R.D. cells; format: cell-based, Enterovirus D68; conditions: CPE assay, EV-D68 US/MO/14-18947 in R.D. cells; for EC50: read-out: Antiviral EC50
Protocol: Cell lines and viruses. Human rhabdomyosarcoma (R.D., ATCC, CCL-136) cells were maintained at 37° C. in a 5% CO2 atmosphere and cultured in Dulbecco's modified Eagle's medium (DMEM) supplemented with 10% fetal bovine serum (FBS) and 1% penicillin-streptomycin antibiotics. The following reagents were obtained through BEI Resources, NIAID, NIH: Human Enterovirus D68, US/MO/14-18949, NR-49130; Enterovirus D68, US/MO/14-18947, NR-49129; Enterovirus D68, US/IL/14-18952, NR-49131; Enterovirus D68, US/KY/14-18953, NR-49132; Enterovirus D68, US/IL/14-18956, NR-49133.
Antiviral assays. Cells for antiviral assays were seeded and grown overnight at 37° C. in a 5% CO2 atmosphere for ˜90% confluency the next day. For all infections, cells were washed with PBS containing magnesium and calcium and infected with virus diluted in DMEM with 2% FBS and 30 mM MgCl2. Viruses were incubated for at least 1 h at 33° C. in a 5% CO2 atmosphere, followed by the addition of compound as well as 1% penicillin-streptomycin. For CC50 measurements, the experiment was performed similarly but excluded viral infection. For cytopathic effect (CPE) assays, cells were stained with 66 µg/mL neutral red for 2 h and neutral red uptake was measured at absorbance 540 nm using a Multiskan FC Microplate Photometer (ThermoFisher Scientific). The EC50 and CC50 values were calculated from best-fit dose response curves using GraphPad Prism. For plaque reduction assays, an 1.2% avicel microcrystalline cellulose (FMC BioPolymer, Philadelphia, PA) overlay was used and cells were stained after 3 days as previously described^26.

| Structure (SMILES) | IC50 [1] | also measured |
| --- | --- | --- |
| CC(C)(C)[C@H](NC(=O)CC12CC3CC(CC(C3)C1)C2)C(=O)N1C[C@@H]2CCC[C@@H]2[C@H]1C(=O)NC1(C(=O)C(=O)NC2CC2)CCC1 [Jun11806, (1S,3aR,6aS)-2-((S)-2-(2-((3S,5S,7S)-adamantan-1-yl)acetamido)-3,3-dimethylbutanoyl)-N-(1-(2-(cyclopropylamino)-2 oxoacetyl)cyclobutyl)octahydrocyclopenta[c]pyrrole-1-carboxamide] | 4.81 ± 0.81 µM |  |
| COC[C@H](NC(=O)[C@@H]1[C@H]2CCC[C@H]2CN1C(=O)[C@@H](NC(=O)CC12CC3CC(CC(C3)C1)C2)C(C)(C)C)C(=O)C(=O)NC1CC1 [Jun11672, (1S,3aR,6aS)-2-((S)-2-(2-((3S,5S,7S)-adamantan-1-yl)acetamido)-3,3-dimethylbutanoyl)-N—((S)-4-(cyclopropylamino)-1-methoxy-3,4-dioxobutan-2-yl)octahydrocyclopenta[c]pyrrole-1-carboxamide] | 0.12 ± 0.07 µM |  |
| CCC[C@@H](C#N)NC(=O)[C@@H]1[C@H]2CCC[C@H]2CN1C(=O)C(NC(=O)CC12CC3CC(CC(C3)C1)C2)C(C)(C)C (stereo partly drawn) [Jun11191, (1S,3aR,6aS)-2-((S)-2-(2-((3S,5S,7S)-adamantan-1-yl)acetamido)-3,3-dimethylbutanoyl)-N—((S)-1-cyanobutyl) octahydro-cyclopenta[c]pyrrole-1-carboxamide] |  | EC50 ([2]; Enterovirus D, EVD68, RD): 3.92 µM |
| CCCC(NC(=O)C1C2CCCC2CN1C(=O)C(NC(=O)CC1C2CC3CC(C2)CC1C3)C(C)(C)C)C(=O)C(=O)NC1CC1 [Jun1024, (1S)-2-((S)-2-(2-((1S,3S,5S,7S)-adamantan-2-yl)acetamido)-3,3-dimethylbutanoyl)-N—((S)-1-(cyclopropylamino)-1,2-dioxohexan-3-yl)octahydrocyclopenta[c]pyrrole-1-carboxamide] | 0.12 ± 0.01 µM |  |
| CCC[C@H](NC(=O)[C@@H]1[C@H]2CCC[C@H]2CN1C(=O)[C@@H](NC(=O)C[C@@]12C[C@@H]3C[C@@H](C[C@@](O)(C3)C1)C2)C(C)(C)C)C(=O)C(=O)NC1CC1 [Jun922, (1S,3aR,6aS)—N—((S)-1-(cyclopropylamino)-1,2-dioxohexan-3-yl)-2-((S)-2-(2-((1r,3R,5R,7S)-3-hydroxyadamantan-1-yl)acetamido)-3,3-dimethylbutanoyl)octa-hydrocyclopenta[c]pyrrole-1-carboxamide] |  | EC50 [2]: 1.85 µM |
| CC(C)(C)[C@H](NC(=O)CC12CC3CC(CC(C3)C1)C2)C(=O)N1C[C@@H]2CCC[C@@H]2[C@H]1C(=O)NC1(C(=O)C(=O)NC2CC2)CCCCC1 [Jun11805, (1S,3aR,6aS)-2-((S)-2-(2-((3S,5S,7S)-adamantan-1-yl)acetamido)-3,3-dimethylbutanoyl)-N-(1-(2-(cyclopropylamino)-2-oxoacetyl)cyclohexyl)octahydrocyclopenta[c]pyrrole-1-carboxamide] | 0.74 ± 0.14 µM |  |
| CC(C)(C)[C@H](NC(=O)CC12CC3CC(CC(C3)C1)C2)C(=O)N1C[C@@H]2CCC[C@@H]2[C@H]1C(=O)N[C@H](C(=O)C(=O)NC1CC1)c1ccccc1 [Jun11817, (1S,3aR,6aS)-2-((S)-2-(2-((3S,5S,7S)-adamantan-1-yl)acetamido)-3,3-dimethylbutanoyl)-N—((S)-3-(cyclopropylamino)-2,3-dioxo-1-phenylpropyl)octahydrocyclopenta[c]pyrrole-1-carboxamide] | 0.23 ± 0.08 µM |  |
| CC(C)C[C@H](NC(=O)[C@@H]1[C@H]2CCC[C@H]2CN1C(=O)[C@@H](NC(=O)CC12CC3CC(CC(C3)C1)C2)C(C)(C)C)C(=O)C(=O)NC1CC1 [Jun11389, (1S,3aR,6aS)-2-((S)-2-(2-((3S,5S,7S)-adamantan-1-yl)acetamido)-3,3-dimethyl-butanoyl)-N—((S)-1-(cyclopropylamino)-5-methyl-1,2-dioxohexan-3-yl)octahydro-cyclopenta[c]pyrrole-1-carboxamide] | 0.26 ± 0.05 µM | antiviral activity, in words, relative to the named comparator [2]: failed to improve the antiviral potency compared to Jun8861 |
| CC(C)(C)C(NC(=O)CC12CC3CC(CC(C3)C1)C2)C(=O)N1CC2CCCC2C1C(=O)NC(C(=O)C(N)=O)C1CCCCC1 [Jun11725, (1S,3aR,6aS)-2-((S)-2-(2-((3S,5S,7S)-adamantan-1-yl)acetamido)-3,3-dimethylbutanoyl)-N—((S)-3-amino-1-cyclohexyl-2,3-dioxopropyl)octahydro-cyclopenta[c]pyrrole-1-carboxamide] | 0.19 ± 0.02 µM |  |
| CC(C)(C)[C@H](NC(=O)CC12CC3CC(CC(C3)C1)C2)C(=O)N1C[C@@H]2CCC[C@@H]2[C@H]1C(=O)N[C@H](C(=O)C(=O)NC1CC1)c1ccc(F)cc1 [Jun11861, (1S,3aR,6aS)-2-((S)-2-(2-((3S,5S,7S)-adamantan-1-yl)acetamido)-3,3-dimethylbutanoyl)-N—((S)-3-(cyclopropylamino)-1-(4-fluorophenyl)-2,3-dioxopropyl)octahydrocyclopenta[c]pyrrole-1-carboxamide] | 0.35 ± 0.13 µM |  |
| CCCC(NC(=O)C1C2CCCC2CN1C(=O)C(NC(=O)CC12CC3CC(CC(O)(C3)C1)C2)C(C)(C)C)C(=O)C(=O)NC1CC1 [Jun922, (1S,3aR,6aS)—N—((S)-1-(cyclopropylamino)-1,2-dioxohexan-3-yl)-2-((S)-2-(2-((1r,3R,5R,7S)-3-hydroxyadamantan-1-yl)acetamido)-3,3-dimethylbutanoyl)octa-hydrocyclopenta[c]pyrrole-1-carboxamide] | 0.4 ± 0.05 µM |  |
| CC(C)(C)[C@H](NC(=O)CC12CC3CC(CC(C3)C1)C2)C(=O)N1C[C@@H]2CCC[C@@H]2[C@H]1C(=O)N[C@@H](Cc1ccsc1)C(=O)C(=O)NC1CC1 [Jun11818] | 0.12 ± 0.02 µM |  |
| CCC[C@H](NC(=O)[C@@H]1[C@H]2CCC[C@H]2CN1C(=O)[C@@H](NC(=O)CC1C2CC3CC(C2)CC1C3)C(C)(C)C)C(=O)C(=O)NC1CC1 (stereo partly drawn) [Jun1024, (1S)-2-((S)-2-(2-((1S,3S,5S,7S)-adamantan-2-yl)acetamido)-3,3-dimethylbutanoyl)-N—((S)-1-(cyclopropylamino)-1,2-dioxohexan-3-yl)octahydrocyclopenta[c]pyrrole-1-carboxamide] |  | EC50 [2]: 0.18 µM |
